{"source": "patent US20110152088A1", "about": "“Herbicidal Composition Comprising Flufenacet” (BAYER CROPSCIENCE AG, priority 2009, published 2011)", "key": {"POAAN [1]": {"tested_on": "POAAN", "test": "Greenhouse trial: PE soil application vs incorporation into the soil (test methods 1, 3 and 4)", "assay_type": "in vivo, Poa annua", "conditions": "g of AS/ha: (A) 120, (B) 1200, (C) 140, (A)+(B)+(C) 120 + 1200 + 140", "procedure": "(§1) In the standard design of the test, seeds of various broad-leaved weed and weed grass biotypes (origins) were sown in a 8-13 cm diameter pot filled with natural soil of a standard field soil (loamy silt; non-sterile) and covered with a covering soil layer of about 1 cm. The pots were then cultivated in a greenhouse (12-16 h of light, temperature day 20-22° C., night 15-18° C.) until the time of application. The pots were treated on a laboratory track sprayer with spray liquors comprising the compositions according to the invention, mixtures of the prior art or components used individually. Application of the active compounds or active compound combinations formulated as WG, WP, EC or otherwise was carried out at the appropriate growth stages of the plants. The application rate for the spray application was 100-600 l of water/ha. After the treatment, the plants were returned to the greenhouses.\n(§2) About 3 weeks after the application, the soil action or/and foliar action was assessed visually according to a scale of 0-100% in comparison to an untreated comparative group: 0%=no noticeable effect compared to the untreated comparative group; 100%=full effect compared to the untreated comparative group.\n(§3) (notes: the term “seeds” also includes vegetative propagation forms such as, for example, rhizome pieces; abbreviations used: h light=hours of illumination, g of AS/ha=gram of active substance per hectare, I/ha=liter per hectare, S=sensitive, R=resistant) • 1. Pre-emergence action against weeds: seeds of various broad-leaved weed and weed grass biotypes (origins) were sown in a 8-13 cm diameter pot filled with natural soil of a standard field soil (loamy silt; non-sterile) and covered with a covering soil layer of about 1 cm. The pots were then cultivated in a greenhouse (12-16 h of light, temperature day 20-22° C., night 15-18° C.) until the time of application. The pots were treated at the BBCH stage 00-10 of the seeds/plants on a laboratory track sprayer with spray liquors comprising the compositions according to the invention, mixtures or components used individually, as WG, WP, EC or other formulations. The application rate for the spray application was 100-600 l of water/ha. After the treatment, the plants were returned to the greenhouses and, when required, treated with fertilizer and watered. • 2. Post-emergence action against weeds: seeds of various broad-leaved weed and weed grass biotypes (origins) were sown in a 8-13 cm diameter pot filled with natural soil of a standard field soil (loamy silt; non-sterile) and covered with a covering soil layer of about 1 cm. The pots were then cultivated in a greenhouse (12-16 h of light, temperature day 20-22° C., night 15-18° C.) until the time of application. The pots were treated at various BBCH stages between 11-25 of the seeds/plants, i.e. generally between two to three weeks after the start of the cultivation, on a laboratory track sprayer with spray liquors comprising the compositions according to the invention, mixtures or components used individually, as WG, WP, EC or other formulations. The application rate for the spray application was 100-600 l of water/ha. After the treatment, the plants were returned to the greenhouses and, when required, treated with fertilizer and watered. • 3. Pre-emergence action against weeds with and without incorporation of active compound: seeds of various broad-leaved weed and weed grass biotypes (origins) were sown in a 8-13 cm diameter pot filled with natural soil of a standard field soil (loamy silt; non-sterile). […]"}, "TRZAS [2]": {"tested_on": "TRZAS", "test": "Greenhouse trial: PE soil application vs incorporation into the soil (test methods 1, 3 and 4)", "assay_type": "in vivo, Triticum aestivum, summer wheat", "conditions": "g of AS/ha: (A) 120, (B) 1200, (C) 140, (A)+(B)+(C) 120 + 1200 + 140", "procedure": "as §1\n(§4) About 3 weeks after the application, the soil action or/and foliar action was assessed visually according to a scale of 0-100% in comparison to an untreated comparative group: 0%=no noticeable effect compared to the untreated comparative group; 100%=full effect compared to the untreated comparative group. […]"}, "POAAN [3]": {"tested_on": "POAAN", "test": "Greenhouse trial: PO application (test methods 2 and 5)", "assay_type": "in vivo, Poa annua", "conditions": "g of AS/ha: (A) 120, (B) 1600, (C) 140, (A)+(B)+(C) 120 + 1600 + 140", "procedure": "as §1, §2\n(§5) (notes: the term “seeds” also includes vegetative propagation forms such as, for example, rhizome pieces; abbreviations used: h light=hours of illumination, g of AS/ha=gram of active substance per hectare, I/ha=liter per hectare, S=sensitive, R=resistant) • 1. Pre-emergence action against weeds: seeds of various broad-leaved weed and weed grass biotypes (origins) were sown in a 8-13 cm diameter pot filled with natural soil of a standard field soil (loamy silt; non-sterile) and covered with a covering soil layer of about 1 cm. The pots were then cultivated in a greenhouse (12-16 h of light, temperature day 20-22° C., night 15-18° C.) until the time of application. […]"}, "AVEFA": {"tested_on": "AVEFA", "test": "Greenhouse trial: PE application vs application 7 days prior to sowing (test method 6)", "assay_type": "in vivo, Avena fatua", "procedure": "as §1, §2, §3"}, "HORVS [4]": {"tested_on": "HORVS", "test": "Greenhouse trial: PE application vs application 7 days prior to sowing (test method 6)", "assay_type": "in vivo, Hordeum vulgare, summer barley", "conditions": "g of AS/ha: (A) 90, (B) 1200, (C) 140, mixture 90 + 1200 + 140", "procedure": "as §1, §4"}, "TRZAS [5]": {"tested_on": "TRZAS", "test": "Greenhouse trial: PE application vs application 7 days prior to sowing (test method 6)", "assay_type": "in vivo, Triticum aestivum, summer wheat", "conditions": "g of AS/ha: (A) 90, (B) 1200, (C) 140, (A)+(B)+(C) 90 + 1200 + 140", "procedure": "as §1, §4"}, "MATCH [6]": {"tested_on": "MATCH", "test": "Greenhouse trial: PE application with different irrigation variants (test method 7)", "assay_type": "in vivo, Matricaria chamomilla", "conditions": "g of AS/ha: (A) 120, (B) 1200, (C) 140, (A)+(B)+(C) 120 + 1200 + 140", "procedure": "as §1, §2, §3"}, "LOLPE": {"tested_on": "LOLPE", "test": "Greenhouse trial: different soil types (test method 8)", "assay_type": "in vivo, Lolium perenne", "conditions": "g of AS/ha: (A) 120, (B) 1200, (C) 90, (A)+(B)+(C) 120 + 1200 + 90", "procedure": "as §1, §2, §3"}, "HORVS [7]": {"tested_on": "HORVS", "test": "Greenhouse trial: different soil types (test method 8)", "assay_type": "in vivo, Hordeum vulgare, summer barley", "conditions": "g AS/ha: (A) 120, (B) 1200, (C) 140, (A)+(B)+(C) 120 + 1200 + 140", "procedure": "as §1, §2, §5"}, "STEME": {"tested_on": "STEME", "test": "Greenhouse trial: resistant biotypes following PE application (test method 9)", "assay_type": "in vivo, Stellaria media", "conditions": "PE, g of AS/ha: (A) 90, (B) 1200, (C) 140, (A)+(B)+(C) 90 + 1200 + 140, iodosulfuron 10", "procedure": "as §1, §2, §3"}, "LOLSS": {"tested_on": "LOLSS", "test": "Greenhouse trial: resistant biotypes following PE application (test method 9)", "assay_type": "in vivo, Lolium species", "conditions": "g of AS/ha: (A) 90, (B) 1200, (C) 140, (A)+(B)+(C) 90 + 1200 + 140, iodosulfuron 10", "procedure": "as §1, §2, §3"}, "MATCH [8]": {"tested_on": "MATCH", "test": "Greenhouse trial: different sowing depths on PE application (test method 10)", "assay_type": "in vivo, Matricaria chamomilla", "conditions": "g of AS/ha: (A) 90, (B) 1200, (C) 140, (A)+(B)+(C) 90 + 1200 + 140", "procedure": "as §1, §2, §3"}, "APESV": {"tested_on": "APESV", "test": "Greenhouse trial: different sowing depths on PE application (test method 10)", "assay_type": "in vivo, Apera Spica-venti", "conditions": "g of AS/ha: (A) 90, (B) 1200, (C) 140, (A)+(B)+(C) 90 + 1200 + 140", "procedure": "as §1, §2, §3"}}, "data": [{"smiles": "CSc1nnc(C(C)(C)C)c(=O)n1N", "note": "[(C) metribuzin, 4-amino-6-(1,1-dimethylethyl)-3-(methylthio)-1,2,4-triazon-5(4H)-one]", "values": [{"measurement": "activity POAAN", "setting": "POAAN [1]; Incorporation", "value": 68, "unit": "%"}, {"measurement": "activity POAAN", "setting": "POAAN [1]; PE application", "value": 0, "unit": "%"}, {"measurement": "activity TRZAS (crop plant)", "setting": "TRZAS [2]; Incorporation", "value": 100, "unit": "%"}, {"measurement": "activity TRZAS (crop plant)", "setting": "TRZAS [2]; PE application", "value": 65, "unit": "%"}, {"measurement": "activity POAAN", "setting": "POAAN [3]", "value": 79, "unit": "%"}, {"measurement": "activity AVEFA", "setting": "AVEFA; PE application, g of AS/ha: (A) 90, (B) 1200, (C) 140, mixture 90 + 1200 + 140", "value": 10, "unit": "%"}, {"measurement": "activity AVEFA", "setting": "AVEFA; application 7 days prior to sowing, g of AS/ha: (A) 90, (B) 1200, (C) 140, (A)+(B)+(C) 90 + 1200 + 140", "value": 0, "unit": "%"}, {"measurement": "activity HORVS (crop plant)", "setting": "HORVS [4]", "value": 50, "unit": "%"}, {"measurement": "activity TRZAS (crop plant)", "setting": "TRZAS [5]", "value": 30, "unit": "%"}, {"measurement": "activity MATCH", "setting": "MATCH [6]; Irrigation from above", "value": 0, "unit": "%"}, {"measurement": "activity MATCH", "setting": "MATCH [6]; Irrigation from below", "value": 60, "unit": "%"}, {"measurement": "activity LOLPE IU soil", "setting": "LOLPE; IU soil", "value": 75, "unit": "%"}, {"measurement": "activity LOLPE IU/EC73 soil", "setting": "LOLPE; IU/EC73 soil", "value": 5, "unit": "%"}, {"measurement": "activity HORVS IU soil (crop plant)", "setting": "HORVS [7]; IU soil", "value": 0, "unit": "%"}, {"measurement": "Difference of the soil types, HORVS", "setting": "HORVS [7]; IU/EC73 soil vs IU soil", "value": 0, "unit": "%"}, {"measurement": "activity HORVS IU/EC73 soil (crop plant)", "setting": "HORVS [7]; IU/EC73 soil", "value": 0, "unit": "%"}, {"measurement": "activity STEME resistant", "setting": "STEME; resistant biotype", "value": 98, "unit": "%"}, {"measurement": "activity STEME sensitive", "setting": "STEME; sensitive biotype", "value": 100, "unit": "%"}, {"measurement": "activity LOLSS resistant", "setting": "LOLSS; PE, resistant biotype", "value": 70, "unit": "%"}, {"measurement": "activity LOLSS sensitive", "setting": "LOLSS; PE, sensitive biotype", "value": 70, "unit": "%"}, {"measurement": "Difference Δ^D activity resistant to activity sensitive, LOLSS", "setting": "LOLSS", "value": "Δ^D ± 0%"}, {"measurement": "activity MATCH 5 mm", "setting": "MATCH [8]; sowing depth 5 mm", "value": 100, "unit": "%"}, {"measurement": "activity MATCH 20 mm", "setting": "MATCH [8]; sowing depth 20 mm", "value": 70, "unit": "%"}, {"measurement": "activity APESV 5 mm", "setting": "APESV; sowing depth 5 mm", "value": 75, "unit": "%"}, {"measurement": "activity APESV 20 mm", "setting": "APESV; sowing depth 20 mm", "value": 100, "unit": "%"}]}]}
